Target: T1, Human MTAP (Homo sapiens, UniProt Q13126)
T1 construct: six-histidine tag (His6) (N); made in house; host or cells: E. coli BL21 DE3
T1 sequence (Q13126 1-283): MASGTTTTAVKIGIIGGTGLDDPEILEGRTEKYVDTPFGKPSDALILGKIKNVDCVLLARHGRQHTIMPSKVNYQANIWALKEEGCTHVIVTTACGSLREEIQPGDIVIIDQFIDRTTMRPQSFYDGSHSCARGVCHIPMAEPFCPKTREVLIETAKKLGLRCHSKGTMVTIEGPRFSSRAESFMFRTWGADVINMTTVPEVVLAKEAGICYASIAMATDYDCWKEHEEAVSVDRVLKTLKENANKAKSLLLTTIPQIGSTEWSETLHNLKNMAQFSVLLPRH
Assay: MTAP substrate assay, coupled spectrophotometric (adenine, xanthine oxidase)
Format: biochemical
Conditions: 2 nM MTAP; for activity at 50 µM: 10 min, read-out: MT-A—50: initial velocity as a percentage of the initial velocity with MTA as substrate; for MT-A—10: initial velocity as a percentage of the initial velocity with MTA as substrate: compound 10 uM, relative to MTA at 10 uM
Procedure, shortened: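 Detection was xanthine oxidase-coupled (0.8 units/ml), reading adenine-derived absorbance at 305 nm over 10 min in potassium phosphate/DTT buffer at 37° C, with N-His6 enzyme purified from E. coli.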

[1] = compound 50 uM, relative to MTA at 50 uM

Molecule | activity at 50 µM [1] [%] | MT-A—10: initial velocity as a percentage of the initial velocity with MTA as substrate [%] | MT-A—50: initial velocity as a percentage of the initial velocity with MTA as substrate [1] [%]
CCCCCCCCCCSC[C@H]1O[C@@H](n2cnc3c(N)ncnc32)[C@H](O)[C@@H]1O [2(G)(129), (2R, 3R, 4S, 5S)-2-(6-amino-9H-purin-9-yl)-5-[(decylthio)methyl]tetra-hydrofuran-3,4-diol] | 41.5 | 46 | 
CCC(C)CSC[C@H]1O[C@@H](n2cnc3c(N)ncnc32)[C@H](O)[C@@H]1O (stereo partly drawn) [2(G)(71), (2R, 3R, 4S, 5S)-2-(6-amino-9H-purin-9-yl)-5-{[(2-methylbutyl)-thio]methyl}tetrahydro-furan-3,4-diol] | 73 | 77 | 
Nc1ncnc2c1ncn2[C@@H]1O[C@H](CSc2nc3ccccc3[nH]2)[C@@H](O)[C@H]1O [2(G)(119), (2R, 3R, 4S, 5S)-2-(6-amino-9H-purin-9-yl)-5-[(1H-benzimidazol-2-ylthio)methyl)tetrahydro-furan-3,4-diol] | 26 | 12 | 
Nc1ncnc2c1ncn2[C@@H]1O[C@H](CSc2cccc3ccccc23)[C@@H](O)[C@H]1O [2(G)(18), (2R, 3R, 4S, 5S)-2-(6-amino-9H-purin-9-yl)-5-[(1-naphthylthio)methyl]tetrahydrofuran-3,4-diol] | 4 | 5 | 
Nc1ncnc2c1ncn2[C@@H]1O[C@H](CSc2nccn2Cc2ccccc2)[C@@H](O)[C@H]1O [2(G)(160), (2R, 3R, 4S, 5S)-2-(6-amino-9H-purin-9-yl)-5-{[(1-benzyl-1H-imidazol-2-yl)thio]methyl}tetra-hydrofuran-3,4-diol] | 17 | 12 | 
Nc1ncnc2c1ncn2[C@@H]1O[C@H](CSc2nc(-c3ccccc3)cs2)[C@@H](O)[C@H]1O [2(G)(138), (2R, 3R, 4S, 5S)-2-(6-amino-9H-purin-9-yl)-5-{[(4-phenyl-1,3-thiazol-2-yl)thio]methyl}-tetrahydrofuran-3,4-diol] | 12.5 | 9 | 
Nc1ncnc2c1ncn2[C@@H]1O[C@H](CSc2ccc([N+](=O)[O-])cn2)[C@@H](O)[C@H]1O [2(G)(105), (2R, 3R, 4S, 5S)-2-(6-amino-9H-purin-9-yl)-5-{[(5-nitropyridin-2-yl)thio]methyl}tetrahydro-furan-3,4-diol] | 21 | 17 | 
Nc1ncnc2c1ncn2[C@@H]1O[C@H](CSc2nc3cc(Cl)ccc3s2)[C@@H](O)[C@H]1O [2(G)(11), (2R, 3R, 4S, 5S)-2-(6-amino-9H-purin-9-yl)-5-{[(5-chloro-1,3-benzothiazol-2-yl)thio]methyl}tetrahydro-furan-3,4-diol] | 25 | 22 | 
Nc1ncnc2c1ncn2[C@@H]1O[C@H](CSc2nc(O)c3cc[nH]c3n2)[C@@H](O)[C@H]1O [2(G)(64), (2R, 3R, 4S, 5S)-2-(6-amino-9H-purin-9-yl)-5-{[(4-hydroxy-7H-pyrrolo[2,3-d]pyrimidin-2-yl)thio]methyl}tetra-hydrofuran-3,4-diol] | 48 | 48 | 
CC(C)(C)c1ccc(SC[C@H]2O[C@@H](n3cnc4c(N)ncnc43)[C@H](O)[C@@H]2O)cc1 [2(G)(21), (2R, 3R, 4S, 5S)-2-(6-amino-9H-purin-9-yl)-5-{[(4-tert-butylphenyl)thio]methyl}tetrahydrofuran-3,4-diol] | 9 | 12 | 
CC(C)SC[C@H]1O[C@@H](n2cnc3c(N)ncnc32)[C@H](O)[C@@H]1O [2(G)(45), (2R, 3R, 4S, 5S)-2-(6-amino-9H-purin-9-yl)-5-[(isopropylthio)methyl]-tetrahydrofuran-3,4-diol] | 57 | 53 | 
Nc1ncnc2c1ncn2[C@@H]1O[C@H](CSc2nccc(C(F)(F)F)n2)[C@@H](O)[C@H]1O [2(G)(33), (2R, 3R, 4S, 5S)-2-(6-amino-9H-purin-9-yl)-5-({[4-(trifluoromethyl)-pyr-imidin-2-yl]thio}methyl)-tetrahydrofuran-3,4-diol] | 36 | 28 | 
COC(=O)c1ccc(SC[C@H]2O[C@@H](n3cnc4c(N)ncnc43)[C@H](O)[C@@H]2O)cc1 [2(G)(20), methyl 4-({[(2S, 3S, 4R, 5R)-5-(6-amino-9H-purin-9-yl)-5-3,4-dihydroxytetrahydro-furan-2-yl]methyl}thio)benzoate] | 5 | 7 | 
COC(=O)c1cccc(SC[C@H]2O[C@@H](n3cnc4c(N)ncnc43)[C@H](O)[C@@H]2O)c1 [2(G)(109), methyl 3-({[(2S, 3S, 4R, 5R)-5-(6-amino-9H-purin-9-yl)-1,3,4-dihydroxytetra-hydrofuran-2-yl]methyl}thio)benzoate] | 8 | 8 | 
Nc1ncnc2c1ncn2[C@@H]1O[C@H](CSc2cccc(Cl)c2)[C@@H](O)[C@H]1O [2(G)(98), (2R, 3R, 4S, 5S)-2-(6-amino-9H-purin-9-yl)-5-{[(3-chlorophenyl)thio]-methyl}tetrahydrofuran-3,4-diol] | 18 | 20 | 
Nc1ncnc2c1ncn2[C@@H]1O[C@H](CSCCc2c[nH]c3ccccc23)[C@@H](O)[C@H]1O [2(G)(81), (2R, 3R, 4S, 5S)-2-(6-amino-9H-purin-9-yl)-5-({[2-(1H-indol-3-yl)ethyl]thio}methyl)-tetrahydrofuran-3,4-diol] | 18 | 18 | 
Nc1nnc(SC[C@H]2O[C@@H](n3cnc4c(N)ncnc43)[C@H](O)[C@@H]2O)s1 [2(G)(9), (2R, 3R, 4S, 5S)-2-(6-amino-9H-purin-9-yl)-5-{[(5-amino-1,3,4-thiadiazol-2-yl)thio]methyl}tetrahydro-furan-3,4-diol] | 47 | 34 | 
(2R, 3R, 4S, 5S)-2-(6- amino-9H-purin-9-yl)-5- {[(5-chloro-1H- yl)thio]methyl}tetrahydro- furan-3,4-diol [2(G)(5)] |  | 5 | 2
Nc1ncnc2c1ncn2[C@@H]1O[C@H](CSc2cccc(C(=O)O)c2)[C@@H](O)[C@H]1O [2(G)(90), 3-({[(2S, 3S, 4R, 5R)-5-(6-amino-9H-purin-9-yl)-3,4-dihydroxytetrahydro-furan-2-yl]methyl}thio)benzoic acid] | 8 | 3 | 

Reference: US20040043959A1, “Combination therapies for treating methylthioadenosine phosphorylase deficient cells” (priority 2002, published 2004)
